Test results: patent publication US5593970A, “Heterocyclic anthracycline analogs” (priority 1994, dated 1997)
Entries after “also recorded” stand apart in the source; their conditions may differ. Where two headings read alike, the source gives them in different places.

Tests used:
tumor cell lines = assay: Tumor clonogenic assay, overall; assay type: cell-based
From the text: For the IN VITRO test, we chose a tumor clonogenic assay which measures the ability of tumoral cells to form colonies (multicellular growth units) as a result of cell division in semisolid agar support (2,3). A more elaborate version of this fundamental assay, the soft agar colony formation disk diffusion assay was used. This assay defines the relative activity of one particular drug versus a tumoral cell line type. The effect of the test drug against tumoral cells could be measured by its inhibitory capacity against colony formation after the delivery of the compound, in different concentrations on an filter disk(4).
A modified technique of this assay was used in order to investigate the antiproliferative activity of candidate compounds. Tumoral cells from solid tumors and ascitic lines were plated separately in a two layer agar matrix. Cell lines to be tested were suspended in an upper layer of 0.4% Noble agar (Difco#00142-01) in RPMI-1066 (Gibco#3201875) at a yield varying between 10^4 to 2×10^5 cells per 60 mm Petri dish. Plating efficiency was determined for each line in order to achieve an optimal number of colonies per dish. Plates were examined before drug administration to confirm a uniform dispersion of single cells. The bottom layer consisted of 0.8% Noble agar, 0.8% Tryptic Soy Broth (difco#0037001)in CMRL-1066/Fischer's. The bottom layers were used within 2 and 9 days of preparation. Plated dishes (bottom layer of agar, upper layer of cells and administered drug were incubated in humidified atmosphere at 37° C., 5% CO2 for 10-20 days depending upon the time necessary to observe adequate colonies (defined as a cell aggregate of more than 50 cells) both control and drug inhibited. Drugs were administered on a paper filter disk (Whatman No. 1) of 6.5 mm diameter placed on the upper layer at 1/3 distance from the edge of the dish. The anti-clonogenic activity of the compounds was measured as the zone of inhibition from the disk edge to the most proximal colonies. This zone of inhibition was checked on an inverted microscope (40×) and was measured with a micrometer mounted in the eyepiece. The ocular micrometer was calibrated with a stage micrometer set for a particular combination of ocular and objective lenses.
200 units of activity are equivalent to 6.5 mm distance from the disk edge to the first colonies (5). […] We made a modification of the initial technique by not plating a solid tumor and a leukemia simultaneously in the same Petri dish. Anti-clonogenic tests performed on leukemia cell line have helped in the discovery of the majority of current clinically used cytostatic drugs. Our tests on solid tumor lines (animal or human) may help define active compounds with solid tumor specificity. This specific activity would be indicated by a higher level of cloning inhibition in solid tumors versus leukemias (6).

BE-1 = assay: Soft agar colony formation disk diffusion assay; assay type: cell-based, human
How it was run: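 Two-layer agar; upper 0.4% Noble agar/RPMI-1066 with cells, lower 0.8% agar + 0.8% Tryptic Soy Broth. Drug on 6.5 mm filter disk; 37 °C, 5% CO2, 10–20 d. Inhibition zone (disk edge to closest colony) read at 40× with eyepiece micrometer.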

Leukemia = assay: NCI assay, average per cancer type; conditions: Leukemia
NSC Lung = assay: NCI assay, average per cancer type; conditions: NSC Lung
SC Lung = assay: NCI assay, average per cancer type; conditions: SC Lung
Colon = assay: NCI assay, average per cancer type; conditions: Colon
CNS = assay: NCI assay, average per cancer type; conditions: CNS
Melanoma = assay: NCI assay, average per cancer type; conditions: Melanoma
Ovarian = assay: NCI assay, average per cancer type; conditions: Ovarian
Renal = assay: NCI assay, average per cancer type; conditions: Renal
solid tumors = assay: NCI assay, mean potency in solid tumors; conditions: solid tumors

Row | Compound | activity and specificity in words (tumor cell lines) | zone of inhibition (BE-1; 10 μg/DISK) | zone of inhibition (BE-1; 100 μg/DISK) | other results
1 | 3-(2-acetoxy-1-propeneketal)aceto-6-acetoxy-1-hydroxy-1,2,3,4-tetrahydro-(2-oxygen)naphtacene-5,12-dione and 3-(2-acetoxy-1-propeneketal)-aceto-11-acetoxy-1-hydroxy-1,2,3,4-tetrahydro-(2-oxygen)naphtacene-5,12-dione [BCH-710] | most active | – | – | activity and specificity in words (tumor cell lines; listed as BCH 710): specificity for the MATB/ADR rat breast ADR resistant adenocarcinoma and mouse ovarian reticulum cell sarcoma
2 | COC(=O)[C@H]1CC2=C(C(=O)c3c(cc4ccccc4c3O)C2=O)[C@H](O[C@H]2C[C@H](NC(=O)C(F)(F)F)[C@H](O)[C@H](C)O2)O1 (mixture of isomers) [BCH-692, (1'S,1S,3R) and (1'S,1R,3S) Methyl[11-hydroxy-1-(2',3',6'-trideoxy-3'-trifluoroacetamido-4'-hydroxy-L-lyxohexopyranose)-5,12-dioxo-3,4,5,12-tetrahydro-anthraceno[2,3-c]pyran-3-yl]formate] | most active; also recorded: Good broad spectrum activity | 0 Zone Units | 100.0 ± 50.0 Zone Units | –
3 | CCOC(=O)[C@H]1CC2=C(C(=O)c3cc4ccccc4c(O)c3C2=O)[C@H](O[C@H]2C[C@H](NC(=O)C(F)(F)F)[C@H](O)[C@H](C)O2)O1 [BCH-684, (1'S,1S,3R)Ethyl[6-hydroxy-5,12-dioxo-1-(3'-trifluoroacetamido-1-daunosaminyl)-3,4,5,12-tetrahydroanthraceno(2,3-C)pyran-3-yl]formate] | most active; also recorded: Good broad spectrum activity | – | – | –
4 | COC(=O)[C@@H]1CC2=C(C(=O)c3c(cc4ccccc4c3O)C2=O)[C@@H](O[C@H]2C[C@H](NC(=O)C(F)(F)F)[C@H](O)[C@H](C)O2)O1 [BCH-691, (1'S,1R,3S)-Methyl-{11-hydroxy-1-(2',3',6'-trideoxy-3'-trifluoroacetamido-4'-hydroxy-L-lyxoheoxpyranose)-5,12-dioxo-3,4,5,12-tetrahydroanthraceno[2,3-c]pyran-3-yl}formate] | most active; also recorded: Good broad spectrum activity | 55.0 ± 10.0 Zone Units | 155.5 ± 50.3 Zone Units | –
5 | CC(=O)Oc1c2c(c(O)c3ccccc13)C(=O)C1=C(C2=O)C(O)OC(C(C)=O)C1 (stereo not shown) [BCH-704, Methyl(11-acetoxy-1,6-dihydroxy-5,12-dioxo-3,4,5,12-tetrahydroanthraceno[2,3-c]pyran-3-yl)ketone] | most active; also recorded: Specificity for breast cancer | – | – | –
6 | Methyl(11-hydroxy-5,12-dioxo-3,4,5,12-tetrahydroanthraceno[2,3-c]pyran-3-yl)ketone and Methyl(5-hydroxy-5,12-dioxo-3,4,5,12-tetrahydroanthraceno[2,3-c]pyran-3-yl)ketone [BCH-687] | most active; also recorded: responded well | 85.0 ± 44.2 Zone Units | 162.6 ± 70.4 Zone Units | Average LOG10 GI50 (Leukemia): -4.91 ± 0.12 log molar; Average LOG10 GI50 (NSC Lung): -4.81 ± 0.35 log molar; Average LOG10 GI50 (SC Lung): -5.09 ± 0.25 log molar; Average LOG10 GI50 (Colon): -4.95 ± 0.28 log molar; Average LOG10 GI50 (CNS): -4.59 ± 0.16 log molar; Average LOG10 GI50 (Melanoma): -5.05 ± 0.27 log molar; Average LOG10 GI50 (Ovarian): -4.94 ± 0.37 log molar; Average LOG10 GI50 (Renal): -4.69 ± 0.23 log molar; Average LOG10 GI50, Mean Potency in solid tumors (solid tumors): -4.87 ± 0.17 log molar
